In ChEMBL document CHEMBL1129521, “Molecular modeling of azole antifungal agents active against Candida albicans. 1. A comparative molecular field analysis study” (1996) one finds Ratio data, which are given here for 56 molecules.

The structures appear in SMILES notation.

In this test the test system is Candida albicans. The test is described as follows: In vitro antimycotic activity of compound against Candida albicans was determined as -log MIC90 compound to that of -log MIC90 bifonazole. The class given is functional.
For the molecule `Nc1ccc(C(c2ccccc2)n2ccnc2)cc1` (stereo unspecified), the Ratio worked out at 0.3.
With `COc1ccc(C(Cc2ccc(Cl)cc2Cl)n2ccnc2)cc1` (stereo unspecified), the Ratio is reported as 0.6.
The same measure for `COc1ccc(C(Cc2ccc(Cl)cc2Cl)C(c2ccc(OC)cc2)n2ccnc2)cc1` (stereo unspecified): 1.5; for `CCC(c1ccc(Cl)cc1)C(c1ccc(OC)cc1)n1cnnc1` (stereo unspecified): 1.8; for `COc1ccc(C(Cc2ccccc2F)n2ccnc2)cc1` (stereo unspecified): 1.8.
In the case of `c1ccc(C(c2ccc(-n3cccc3)cc2)n2ccnc2)cc1` (stereo unspecified), the Ratio is 0.6.
As for `Cc1ccc(C(c2ccc(-n3cccc3)cc2)n2ccnc2)cc1` (stereo unspecified), the figure is 0.9; as for `COc1ccc(C(Cc2ccc(Cl)cc2)n2cncn2)cc1` (stereo unspecified), 1.5.
Turning to `CCC(c1ccc(Cl)cc1)C(c1ccc(OC)cc1)n1cncn1` (stereo unspecified), the Ratio stood at 1.5.
As to `Cc1ccc(-c2cn(C)cc2C(c2ccccc2)n2ccnc2)cc1` (stereo unspecified), the Ratio is listed as 0.6.
In the case of `COc1ccc(C(Cc2ccc(F)cc2)n2ccnc2)cc1` (stereo unspecified), the Ratio turned out to be 1.2.
Turning to `COc1ccc(C(C(Cc2ccc(Cl)cc2Cl)c2ccc(Cl)cc2)n2cncn2)cc1` (stereo unspecified), the Ratio is 1.8.
As for `Fc1ccc(-c2c[nH]cc2C(c2ccccc2)n2ccnc2)cc1` (stereo unspecified), the figure is 0; as for `Clc1ccc(-c2c[nH]cc2C(c2ccccc2)n2ccnc2)cc1` (stereo unspecified), 0.3.
With `COc1ccc(C(C(Cc2ccc(Cl)cc2Cl)c2ccc(Cl)cc2)n2ccnc2)cc1` (stereo unspecified), the Ratio came out at 1.2.
As for `Cn1cc(-c2ccccc2)c(C(c2ccccc2)n2ccnc2)c1` (stereo unspecified), the Ratio was found to be 0.6.
Consider `Fc1ccc(C(c2ccn(-c3ccc(Cl)cc3)c2)n2ccnc2)cc1` (stereo unspecified), for which the Ratio worked out at 0.3.
`Cn1cc(-c2ccccc2)c(C(c2ccc3ccccc3c2)n2ccnc2)c1` (stereo unspecified): the Ratio is 2.4.
For `Fc1ccc(-n2ccc(C(c3ccccc3)n3ccnc3)c2)cc1` (stereo unspecified), the Ratio turned out to be 0.6.
For the molecule `COc1ccc(C(Cc2ccc(N)cc2)n2ccnc2)cc1` (stereo unspecified), the Ratio was found to be 0.3.
Regarding `c1ccc(-c2c[nH]cc2C(c2ccc3ccccc3c2)n2ccnc2)cc1` (stereo unspecified), the Ratio is reported as 0.9.
In the case of `Fc1ccc(C(c2ccn(-c3ccccc3)c2)n2ccnc2)cc1` (stereo unspecified), the Ratio was 0.3.
`COc1ccc(C(Cc2cccc(F)c2)n2ccnc2)cc1` (stereo unspecified): the Ratio is 1.8.
As for `Cn1cc(-c2ccccc2)c(C(c2cccc3ccccc23)n2ccnc2)c1` (stereo unspecified), the figure is 1.5; as for `COc1ccc(CC(c2ccc(OC)cc2)n2cnnc2)cc1` (stereo unspecified), 1.8.
On to `Cc1ccc(C(c2ccc(NC(=O)c3ccc(Cl)cc3Cl)cc2)n2ccnc2)cc1` (stereo unspecified), for which the Ratio was found to be 0.
Consider `COc1ccc(C(Cc2ccccc2[N+](=O)[O-])n2ccnc2)cc1` (stereo unspecified), for which the Ratio was 2.1.
As to `COc1ccc(C(Cc2ccc(Cl)cc2)n2cnnc2)cc1` (stereo unspecified), the Ratio is listed as 1.8.
As to `COc1ccc(CC(c2ccc(OC)cc2)n2ccnc2)cc1` (stereo unspecified), the Ratio was determined as 0.9.
As for `COc1ccc(-c2cn(Cc3ccc(Cl)cc3Cl)cc2C(c2ccccc2)n2ccnc2)cc1` (stereo unspecified), the Ratio amounted to 1.8.
`Fc1ccc(C(c2ccn(-c3ccc(F)cc3)c2)n2ccnc2)cc1` (stereo unspecified): the Ratio amounted to 0.
Take `Clc1ccc(C(c2ccc(-n3cccc3)cc2)n2ccnc2)cc1` (stereo unspecified): the Ratio came to 0.3.
Turning to `c1ccc(-c2c[nH]cc2C(c2cccc3ccccc23)n2ccnc2)cc1` (stereo unspecified), the Ratio turned out to be 0.9.
With `COc1ccc(C(Cc2cccc(-n3cccc3)c2)n2ccnc2)cc1` (stereo unspecified), the Ratio worked out at 1.8.
In the case of `Clc1ccc(-n2ccc(C(c3ccccc3)n3ccnc3)c2)cc1` (stereo unspecified), the Ratio was 0.3.
Turning to `Clc1ccc(-c2cn(Cc3ccc(Cl)cc3Cl)cc2C(c2ccccc2)n2ccnc2)cc1` (stereo unspecified), the Ratio amounted to 1.8.
Take `COc1ccc(C(Cc2cccc(Cl)c2)n2ccnc2)cc1` (stereo unspecified): the Ratio was 1.5.
In the case of `CCC(c1ccc([N+](=O)[O-])cc1)C(c1ccc(OC)cc1)n1ccnc1` (stereo unspecified), the Ratio is 0.9.
With `Clc1ccc(C(c2ccn(-c3ccc(Cl)cc3)c2)n2ccnc2)cc1` (stereo unspecified), the Ratio amounted to 0.6.
`O=[N+]([O-])c1ccc(C(c2ccc(Cl)cc2)n2ccnc2)cc1` (stereo unspecified): the Ratio amounted to 0.
As for `COc1ccc(C(Cc2ccccc2-n2cccc2)n2ccnc2)cc1` (stereo unspecified), the figure is 0.9.
As for `Cc1ccc(C(c2ccc([N+](=O)[O-])cc2)n2ccnc2)cc1` (stereo unspecified), the figure is 0.3; as for `Fc1ccc(-n2ccc(C(c3ccc(Cl)cc3)n3ccnc3)c2)cc1` (stereo unspecified), 0.3; as for `Cc1ccc(C(c2ccn(-c3ccc(F)cc3)c2)n2ccnc2)cc1` (stereo unspecified), 0.3.
As for `COc1ccc(C(Cc2ccc(Cl)cc2)n2ccnc2)cc1` (stereo unspecified), the figure is 0.6.
Take `c1ccc(C(c2ccn(-c3ccccc3)c2)n2ccnc2)cc1` (stereo unspecified): the Ratio is on record as 0.6.
Take `O=[N+]([O-])c1ccc(C(c2ccccc2)n2ccnc2)cc1` (stereo unspecified): the Ratio was found to be 0.3.
`Clc1ccc(Cn2cc(-c3ccccc3)c(C(c3ccccc3)n3ccnc3)c2)c(Cl)c1` (stereo unspecified): the Ratio is reported as 1.5.
Regarding `COc1ccc(C(Cc2ccc([N+](=O)[O-])cc2)n2ccnc2)cc1` (stereo unspecified), the Ratio turned out to be 1.5.
The same measure for `c1ccc(-c2ccc(C(c3ccccc3)n3ccnc3)cc2)cc1` (stereo unspecified) [BIFONAZOLE]: 0.
As to `Cc1ccc(C(c2ccn(-c3ccc(Cl)cc3)c2)n2ccnc2)cc1` (stereo unspecified), the Ratio came out at 0.
As to `Cc1ccc(-c2cn(Cc3ccc(Cl)cc3Cl)cc2C(c2ccccc2)n2ccnc2)cc1` (stereo unspecified), the Ratio worked out at 1.8.
Turning to `COc1ccc(C(Cc2ccccc2Cl)n2ccnc2)cc1` (stereo unspecified), the Ratio amounted to 1.8.
The same measure for `Cc1ccc(C(c2ccn(-c3ccccc3)c2)n2ccnc2)cc1` (stereo unspecified): 0; for `Cn1cc(-c2ccc(Cl)cc2)c(C(c2ccccc2)n2ccnc2)c1` (stereo unspecified): 0; for `Cn1cc(-c2ccc(F)cc2)c(C(c2ccccc2)n2ccnc2)c1` (stereo unspecified): 0.6.
